Source: US20120302614A1, “METHOD FOR IMPROVING CEREBRAL CIRCULATION OR TREATING A CEREBRAL BLOOD FLOW DISORDER” (OSAKA UNIVERSITY, priority 2007, published 2012)

Columns and labels:
[1] = Blood pressure by tail-cuff method, Test Example 1; format: in vivo, ddY mouse
Method: The therapeutic effect of olmesartan medoxomil in Aβ injection model and the dose dependency thereof were examined according to the following experimental schedule. [Experimental Schedule]: Prior to the experiment, 8-week old male ddY mice were administered olmesartan medoxomil (0.5 mg/kg/day, 1 mg/kg/day, 3 mg/kg/day or 6 mg/kg/day) or distilled water orally for four weeks (day −28 to −1). Then, Aβ 1-40 was administered to the mice intracerebroventricularly (day 0). (Although Aβ 1-40 was administered into one of the lateral ventricles in WO 2006/059777, Aβ 1-40 was administered in Test Example 1 to both lateral ventricles with an interval of one day between two administrations. Except for this point, Aβ 1-40 administration was performed in the same manner as in WO 2006/059777.) From one week thereafter, a behavioral test to evaluate cognitive function (Morris water maze test; Morris R et al., J Neuroscience Methods 1984, 11, 47-60) was performed (day 7 to 12). As a negative control, mice which had received oral administration of distilled water for four weeks were administered Aβ 40-1 intracerebroventricularly. The administration of olmesartan medoxomil or distilled water was continued until the end of the behavioral test. Measurements were performed as described below. • Hidden platform test: A platform is placed below the water surface of a water pool 150 cm in diameter filled with white water-colored. Mice are released into the water, and the time it takes them to reach the platform is measured. This trial is performed three times a day and for five consecutive days. As they learn, mice become able to reach the platform more quickly day by day. • Visible platform test: Mice are released into the water under such conditions that they can see the platform. The time it takes them to reach the platform is measured. • Probe test: The platform is removed, and mice are released and allowed to swim freely. […] The time they spent in that quadrant is measured. • Annnulus crossing: The number of times mice crossed the platform in the probe test is counted. […]

[2] = Blood pressure, Test Example 2 (hydralazine as hypotensive control); format: in vivo, ddY mouse; details: after 4-week oral administration (day −1); olmesartan medoxomil 1 mg/kg/day, hydralazine 30 mg/kg/day
Method: Further, assessment of blood pressure was performed by the tail-cuff method (using a sphygmomanometer wound around the mouse tail) (Bunag R D, J Lab Clin Med. 1971, 78, 957-62) immediately before the start of administration of olmesartan medoxomil or distilled water (day −30), immediately before (day −1) and immediately after (day 2) the Aβ intracerebroventricular administration, and after completion of the behavioral test (day 14) (see FIG. 1). […] The dose of olmesartan medoxomil was set at a low level of 1 mg/kg/day in view of the experimental results of Test Example 1. […] The number of successive interceptions by the subject of the two adjoining beams on each bank is counted as locomotion score. • Long-term retention: On day 12 after the completion of the hidden platform test as a water maze test, mice are released into the water and the time it takes them to reach the platform is measured. • Working memory task: The platform is transferred and fixed at a new place. Mice are given four consecutive trials at intervals of as short as 20 seconds, and the time it takes them to reach the platform is measured. […] In order to eliminate this influence, swimming speed is measured.

Compound: CCCc1nc(C(C)(C)O)c(C(=O)OCc2oc(=O)oc2C)n1Cc1ccc(-c2ccccc2-c2nnn[nH]2)cc1 [olmesartan medoxomil, (5-methyl-2-oxo-1,3-dioxolen-4-yl)methyl 4-(1-hydroxy-1-methylethyl)-2-propyl-1-[4-[2-(tetrazol-5-yl)phenyl]phenyl]methyl-imidazole-5-carboxylate]
- blood pressure compared to the distilled water administration group ([1]; after 4-week oral administration (day −1), olmesartan medoxomil administration groups (0.5, 1, 3, 6 mg/kg/day)): significantly lowered
- blood pressure ([1]; immediately after Aβ administration (day 2) and after completion of the behavioral test (day 14)): A similar tendency was observed
- blood pressure ([1]; lowest dose 0.5 mg/kg/day oral, after 4-week administration (day −1)): significant lowering
- blood pressure compared to distilled water administration group [2]: lowered significantly
